# Values quoted from earlier work in patent US12187997B2, “Integrated human organ-on-chip microphysiological systems” (President and Fellows of Harvard College, priority 2011, dated 2025).
# Entries after “also recorded” stand apart in the source; their conditions may differ.
# Tests used:
# [1] = for Organ Toxicity: Table 1
# [2] = for Clearence Mechanism (for PK): Table 1
# [3] = relieving dyspnea in heart failure patients
Molecule,toxicity in humans / in vivo [1],Organ Toxicity [1],Clearence Mechanism (for PK) [2],metabolism and elimination [2],clinical efficacy [3]
Cc1nnc(SCC2=C(C(=O)O)N3C(=O)[C@@H](NC(=O)Cn4cnnn4)[C@H]3SC2)s1 [Cefazolin],produces pulmonary blood clots and nephrotoxicity,"Lung, Kidney",,,
COCc1c(C(C)C)nc(C(C)C)c(/C=C/[C@@H](O)C[C@@H](O)CC(=O)O)c1-c1ccc(F)cc1 [Cerivastatin],major toxicities in vivo (rhabdylomysis) and liver toxicity,"Skeletal; also recorded: muscle,; also recorded: Kidney, Liver",Liver,,
N.N.[Cl][Pt][Cl] [Cisplatin],,,Renal,,
Nc1ccn([C@H]2C[C@H](O)[C@@H](COP(=O)(O)OP(=O)(O)OP(=O)(O)OP(=O)(O)OC[C@H]3O[C@@H](n4ccc(=O)[nH]c4=O)[C@H](O)[C@@H]3O)O2)c(=O)n1 [Denufosol],,,Aerosol,,
COc1cccc2c1C(=O)c1c(O)c3c(c(O)c1C2=O)C[C@@](O)(C(=O)CO)C[C@@H]3O[C@H]1C[C@H](N)[C@H](O)[C@H](C)O1 [Doxorubicin],,"Heart, gut, and bone marrow, and skin","Liver, Renal",,
CC(C)NCC(O)c1ccc(O)c(O)c1 (centres unmarked) [Isoproterenol],,Heart,Renal,primarily metabolized and excreted by the kidney in humans,
CC(=O)N1CCN(c2ccc(OCC3COC(Cn4ccnc4)(c4ccc(Cl)cc4Cl)O3)cc2)CC1 (centres unmarked) [Ketoconazole],,"Liver DDI, tests",Liver,,
Cc1ccc2c(c1)c1c(n2CCc2ccc(C)nc2)CCN(C)C1 [Latrepirdine],,,(Crosses BBB),,
CCOC(=O)C1=C[C@@H](OC(CC)CC)[C@H](NC(C)=O)[C@@H](N)C1 [Tamiflu],,children <1 yr,Liver; Renal,,
CC(C)(C)c1ccc(C(O)CCCN2CCC(C(O)(c3ccccc3)c3ccccc3)CC2)cc1 (centres unmarked) [Terfenadine],cardiotoxic at higher doses in humans,Heart; also recorded: arrhythmia,,,
Cc1c(C)c2c(c(C)c1O)CCC(C)(COc1ccc(CC3SC(=O)NC3=O)cc1)O2 (centres unmarked) [Troglitazone],,Liver,Liver,,
COc1ccc(C(=O)N2CCN(c3ccc4c(c3)CCC(=O)N4)CC2)cc1OC [Vesnarinone],,Heart,Liver,,
Nesiritide,,,"Proteolysis,; also recorded: Renal",primarily eliminated by the kidney,failed a large clinical trial for efficacy
